According to patent US12152016B2, “Aryl hydrocarbon receptor modulators and uses thereof” (Beth Israel Deaconess Medical Center, Inc., priority 2018, dated 2024):

Tests used:
[1] = tested on: AHR-dependent transcription of the CYP1A1 gene; experiment: CYP1A1 induction in mouse macrophages; assay type: cell-based
Method: Mouse macrophages were also used to test AHR-dependent transcription of the CYP1A1 gene in vivo. Finally, the activity of exemplary compounds of Formula (I) described herein was tested in the human […] cell line U937. The U937 cell line is derived from a patient with diffuse histiocytic lymphoma. Tables 2-4 summarize structure-activity relationship data collected for exemplary, non-limiting compounds of Formula (I) described herein.

[2] = biological target: T1, aryl hydrocarbon receptor (AHR) (Homo sapiens, UniProt P35869); experiment: XRE-driven luciferase reporter assay, human HepG2; details: for XRE luciferase Emax (fold): fold over vehicle; for XRE luciferase Emax (footnote c): Emax defined as fold increase at highest concentration tested (10 μM)
T1 sequence (P35869 11-848): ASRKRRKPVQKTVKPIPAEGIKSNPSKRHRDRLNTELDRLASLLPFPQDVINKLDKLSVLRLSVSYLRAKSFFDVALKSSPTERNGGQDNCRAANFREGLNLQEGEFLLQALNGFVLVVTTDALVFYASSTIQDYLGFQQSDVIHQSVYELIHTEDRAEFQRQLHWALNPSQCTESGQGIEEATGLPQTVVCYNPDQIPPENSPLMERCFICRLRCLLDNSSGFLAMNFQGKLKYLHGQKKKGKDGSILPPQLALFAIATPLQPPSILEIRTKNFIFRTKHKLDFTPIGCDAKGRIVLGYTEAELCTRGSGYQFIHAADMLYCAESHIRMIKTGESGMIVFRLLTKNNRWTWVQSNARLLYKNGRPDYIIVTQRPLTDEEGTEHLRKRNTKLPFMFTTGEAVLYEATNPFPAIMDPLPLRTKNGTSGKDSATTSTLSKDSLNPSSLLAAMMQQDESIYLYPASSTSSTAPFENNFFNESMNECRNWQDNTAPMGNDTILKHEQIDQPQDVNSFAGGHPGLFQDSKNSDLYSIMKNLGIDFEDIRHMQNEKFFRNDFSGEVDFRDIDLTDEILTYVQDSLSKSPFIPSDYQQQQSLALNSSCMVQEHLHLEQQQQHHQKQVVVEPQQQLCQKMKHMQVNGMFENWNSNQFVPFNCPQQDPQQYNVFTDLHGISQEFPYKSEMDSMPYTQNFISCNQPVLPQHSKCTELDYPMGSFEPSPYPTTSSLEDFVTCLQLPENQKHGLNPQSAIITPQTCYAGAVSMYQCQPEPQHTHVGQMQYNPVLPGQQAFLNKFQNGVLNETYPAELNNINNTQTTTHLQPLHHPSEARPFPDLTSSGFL
Method: The Human HepG2 cell line is a human liver cancer cell line, and provide a relevant in vitro AHR activity model. These Hep2G cells have been modified to stably express an AHR-responsive (XRE) firefly luciferase reporter gene to give Hep2G-XRE cells. The expression of luciferase should primarily reflect AHR-dependent transcription controlled by XRE.
Transfected cells were treated with AhR agonist (10^−5-10^−12) for 4.5 h in full medium. Cells were lysed and luciferase was activated using the Luciferase Assay System (Promega). Luminescence signals were measured with a FluroStar Omega microplate reader. Luminescence signals of compound treated groups were normalized to vehicle (DMSO) treated control and plotted as concentration dependent fold changes.

[3] = XRE luciferase EC50, Human HepG2, least square curve fitting, >10,000 = does not reach 50% of Emax of ITE at 10 μM (highest concentration tested)
[4] = XRE luciferase EC50 (footnote a), Human HepG2, EC50 defined as concentration induced 50% of Emax of ITE

## CC(C)OC(=O)c1cccc(C(=O)c2c[nH]c3ccccc23)n1 [Compound 1]
[1]; 50 nM
  CYP1A1 induction (% of ITE ± SEM): 22 ± 11 % of ITE
[1]; 5 μM
  CYP1A1 induction (% of ITE ± SEM): 128 ± 11 % of ITE
[2]; Human HepG2
  XRE luciferase Emax (fold): 37 fold
[2]; [3]
  EC50: 0.37 µM

## O=C(OC1CCCCC1)c1cccc(C(=O)c2c[nH]c3ccccc23)n1 [Compound 2]
[1]; 50 nM
  CYP1A1 induction (% of ITE ± SEM): 19 ± 4 % of ITE
[1]; 5 μM
  CYP1A1 induction (% of ITE ± SEM): 95 ± 7 % of ITE
[2]; Human HepG2
  XRE luciferase Emax (fold): 55 fold
[2]; [3]
  EC50: 12 µM

## O=C(O)c1cccc(C(=O)c2c[nH]c3ccccc23)n1 [Compound 3]
[1]; 50 nM
  CYP1A1 induction (% of ITE ± SEM): 27 ± 17 % of ITE
[1]; 5 μM
  CYP1A1 induction (% of ITE ± SEM): 97 ± 16 % of ITE
[2]; Human HepG2
  XRE luciferase Emax (fold): 47 fold
[2]; [3]
  EC50: 0.64 µM

## CN(C)C(=O)c1cccc(C(=O)c2c[nH]c3ccccc23)n1 [Compound 4]
[1]; 5 μM
  CYP1A1 induction (% of ITE ± SEM): 2.5 ± 1.4 % of ITE
[2]; Human HepG2
  XRE luciferase Emax (fold): 23 fold
[2]; [3]
  EC50: > 10 µM

## O=C(c1cccc(Cl)n1)c1c[nH]c2ccccc12 [Compound 6]
[1]; 50 nM
  CYP1A1 induction (% of ITE ± SEM): 86 ± 47 % of ITE
[2]; Human HepG2
  XRE luciferase Emax (footnote c): (109)^c fold
[2]; [4]
  EC50: 0.029 µM

## O=C(c1ccccc1)c1c[nH]c2ccccc12 [Compound 7]
[1]; 5 μM
  CYP1A1 induction (% of ITE ± SEM): 0.6 ± 0.2 % of ITE

## COC(=O)c1cccc(C(=O)c2c[nH]c3ccccc23)c1 [Compound 8]
[1]; 50 nM
  CYP1A1 induction (% of ITE ± SEM): 3 ± 1 % of ITE
[2]; Human HepG2
  XRE luciferase Emax (footnote c): (2.1)^c fold
[2]; [3]
  EC50: > 10 µM

## COC(=O)c1ccc(C(=O)c2c[nH]c3ccccc23)nc1 [Compound 11, methyl 6-(1H-indole-3-carbonyl)pyridine-3-carboxylate]
[1]; 50 nM
  CYP1A1 induction (% of ITE ± SEM): 2 ± 1 % of ITE
[1]; 5 μM
  CYP1A1 induction (% of ITE ± SEM): 26 ± 10 % of ITE
[2]; Human HepG2
  XRE luciferase Emax (footnote c): (2.3)^c fold
[2]; [3]
  EC50: > 10 µM

## CC(=O)Oc1cccc(C(=O)c2c[nH]c3ccccc23)c1 [Compound 12]
[1]; 50 nM
  CYP1A1 induction (% of ITE ± SEM): 5 ± 3 % of ITE

## COC(=O)c1cccc(C(=O)c2cn(C)c3ccccc23)n1 [Compound 13]
[1]; 50 nM
  CYP1A1 induction (% of ITE ± SEM): 29 ± 10 % of ITE
[1]; 5 μM
  CYP1A1 induction (% of ITE ± SEM): 50 ± 20 % of ITE
[2]; Human HepG2
  XRE luciferase Emax (fold): 55 fold
[2]; [3]
  EC50: 0.19 µM

## COC(=O)c1cccc(C(=O)c2c[nH]c3cccc(Cl)c23)n1 [Compound 14]
[1]; 50 nM
  CYP1A1 induction (% of ITE ± SEM): 141 ± 83 % of ITE
[2]; Human HepG2
  XRE luciferase Emax (footnote c): (19)^c fold
[2]; [3]
  EC50: > 10 µM

## COC(=O)c1cccc(C(=O)c2c[nH]c3ccc(Cl)cc23)n1 [Compound 15]
[1]; 50 nM
  CYP1A1 induction (% of ITE ± SEM): 150 ± 36 % of ITE
[1]; 5 μM
  CYP1A1 induction (% of ITE ± SEM): 89 ± 44 % of ITE
[2]; Human HepG2
  XRE luciferase Emax (fold): 62 fold
[2]; [3]
  EC50: 0.0076 µM

## COC(=O)c1cccc(C(=O)c2c[nH]c3cc(Cl)ccc23)n1 [Compound 16]
[1]; 50 nM
  CYP1A1 induction (% of ITE ± SEM): 169 ± 59 % of ITE
[1]; 5 μM
  CYP1A1 induction (% of ITE ± SEM): 122 ± 48 % of ITE
[2]; Human HepG2
  XRE luciferase Emax (footnote c): (141)^c fold
[2]; [4]
  EC50: 0.0016 µM

## COC(=O)c1cccc(C(=O)c2c[nH]c3c(Cl)cccc23)n1 [Compound 17]
[1]; 50 nM
  CYP1A1 induction (% of ITE ± SEM): 49 ± 19 % of ITE
[2]; Human HepG2
  XRE luciferase Emax (fold): 68 fold
[2]; [3]
  EC50: 0.0013 µM

## COC(=O)c1cccc(C(=O)c2c[nH]c3ncccc23)n1 [Compound 18]
[1]; 50 nM
  CYP1A1 induction (% of ITE ± SEM): 11 ± 4 % of ITE
[2]; Human HepG2
  XRE luciferase Emax (fold): 42 fold
[2]; [3]
  EC50: 0.018 µM

## COC(=O)c1cccc(C(=O)c2c[nH]c3ccc(OC)cc23)n1 [Compound 19]
[1]; 50 nM
  CYP1A1 induction (% of ITE ± SEM): 121 ± 12 % of ITE
[1]; 5 μM
  CYP1A1 induction (% of ITE ± SEM): 120 ± 13 % of ITE
[2]; Human HepG2
  XRE luciferase Emax (fold): 131 fold
[2]; [3]
  EC50: 1.8 µM

## COC(=O)c1cccc(C(=O)c2c[nH]c3ccc(Br)cc23)n1 [Compound 20]
[1]; 50 nM
  CYP1A1 induction (% of ITE ± SEM): 138 ± 8 % of ITE
[1]; 5 μM
  CYP1A1 induction (% of ITE ± SEM): 144 ± 20 % of ITE
[2]; Human HepG2
  XRE luciferase Emax (fold): 55 fold
[2]; [3]
  EC50: 0.0062 µM

## COC(=O)c1cccc(C(=O)c2c[nH]c3c4c(ccc23)CCC4)n1 [Compound 21]
[1]; 50 nM
  CYP1A1 induction (% of ITE ± SEM): 129 ± 8 % of ITE
[1]; 5 μM
  CYP1A1 induction (% of ITE ± SEM): 118 ± 5 % of ITE
[2]; Human HepG2
  XRE luciferase Emax (fold): 53 fold
[2]; [3]
  EC50: 0.027 µM

## COC(=O)c1cccc(C(=O)c2c[nH]c3c2ccc2ccccc23)n1 [Compound 22]
[1]; 50 nM
  CYP1A1 induction (% of ITE ± SEM): 57 ± 5 % of ITE
[1]; 5 μM
  CYP1A1 induction (% of ITE ± SEM): 105 ± 3 % of ITE
[2]; Human HepG2
  XRE luciferase Emax (footnote c): (121)^c fold
[2]; [4]
  EC50: 0.014 µM

## COC(=O)c1ccc(C(=O)c2c[nH]c3ccccc23)cn1 [Compound 23]
[1]; 5 μM
  CYP1A1 induction (% of ITE ± SEM): 65 ± 9 % of ITE
[2]; Human HepG2
  XRE luciferase Emax (fold): 74 fold
[2]; [3]
  EC50: 4.7 µM

## COC(=O)c1ccc(C(=O)c2c[nH]c3ccccc23)cc1 [Compound 25]
[1]; 50 nM
  CYP1A1 induction (% of ITE ± SEM): 20 ± 16 % of ITE

## COC(=O)c1ccccc1C(=O)c1c[nH]c2ccccc12 [Compound 26]
[1]; 50 nM
  CYP1A1 induction (% of ITE ± SEM): 10 ± 7 % of ITE

## COc1ccccc1C(=O)c1c[nH]c2ccccc12 [Compound 27]
[1]; 50 nM
  CYP1A1 induction (% of ITE ± SEM): 6 ± 1 % of ITE

## COc1ccc(C(=O)c2c[nH]c3ccccc23)cc1 [Compound 28]
[1]; 50 nM
  CYP1A1 induction (% of ITE ± SEM): 19 ± 8 % of ITE

## COc1cc(C(=O)c2c[nH]c3ccccc23)ccn1 [Compound 29]
[1]; 5 μM
  CYP1A1 induction (% of ITE ± SEM): 44 ± 2 % of ITE
[2]; Human HepG2
  XRE luciferase Emax (fold): 65 fold
[2]; [3]
  EC50: 2.6 µM

## COc1cnc(C(=O)c2c[nH]c3ccccc23)cn1 [Compound 30]
[1]; 5 μM
  CYP1A1 induction (% of ITE ± SEM): 41 ± 3 % of ITE
[2]; Human HepG2
  XRE luciferase Emax (footnote c): (30)^c fold
[2]; [4]
  EC50: 0.0081 µM

## O=C(c1cccc(N2CCOCC2)n1)c1c[nH]c2ccccc12 [Compound 110, 1H-indol-3-yl-(6-morpholino-2-pyridyl)methanone]
[1]; 5 μM
  CYP1A1 induction (% of ITE ± SEM): 46 ± 4 % of ITE
[2]; AHR activity relative to compound #10
  fold less active / fold decrease in activity: ~20 fold
[2]; Human HepG2
  XRE luciferase Emax (fold): 59 fold
[2]; [3]
  EC50: 0.062 µM

## O=C(c1ccccn1)c1c[nH]c2ccccc12 [Compound 124, 1H-indol-3-yl(2-pyridyl)methanone]
[1]; 5 μM
  CYP1A1 induction (% of ITE ± SEM): 15 ± 6 % of ITE
[2]; Human HepG2
  XRE luciferase Emax (fold): 20 fold
[2]; [3]
  EC50: > 10 µM

## O=C(O)c1cccc(C(=O)c2c[nH]c3ccccc23)n1 [Compound 145, 6-(1H-indole-3-carbonyl)pyridine-2-carboxylic acid]
[2]
  IC50: 0.64 µM
